Measured values as given in patent publication US11254716B2, “Peptides for binding epidermal growth factor” (3M INNOVATIVE PROPERTIES COMPANY, priority 2016, dated 2022).
Where no end group is shown, it is not given here.

How the values were obtained:
[1] = target: T1, TNF-α (Homo sapiens, UniProt P01375); experiment: Surface plasmon resonance (SPR) binding assay (Test Method A), TNF-α; settings: CK-linker modified peptide immobilized on CM5 chip, Biacore 3000, 25° C., TNF-α 62.5-1000 nM, 1-to-1 Langmuir fit; read-out: binding affinity (KD) for TNF-α
T1 construct: purchased Abcam plc, Cambridge, Mass

[2] = target: T2, EGF (Homo sapiens, UniProt P01133); experiment: biochemical; settings: binding affinity (KD) for EGF, CK-linker modified peptide immobilized on CM5 chip, Biacore 3000, 25° C., EGF 62.5-1000 nM, 1-to-1 Langmuir fit
Description: “Test Method A” refers to the following general surface plasmon resonance (SPR) binding assay. Target protein (e.g., EGF and tumor necrosis factor alpha (TNFα)) is immobilized at 25° C. and diluted peptides are injected for 3 min at a flow rate of 10 μl/min at 25° C.
The immobilization was performed at 25° C. using HBS-EP as the running buffer. The CM-dextran surfaces of the sensor chip flow cells were activated by a seven minute injection (20 microliters/minute) of freshly prepared 1:1 50 mM NHS: 200 mM EDC. […] The coupling step was followed by a seven minute injection (20 microliters/minute) of ethanolamine hydrochloride-NaOH (1M, pH 8.5) which deactivated residual reactive sites.
The kinetic analysis for EGF was performed at 25° C. The EGF was diluted in HBS-EP buffer and centrifuged at 14,000 rpm for five minutes at 4° C. Individual test samples of EGF at various concentrations (62.5, 125, 250, 500 and 1000 nM) were injected for three minutes at a flow rate of 10 microliters/minute. The surface was regenerated by injection of 10 microliters of glycine-HCl in water (20 mM, pH 2.5).
The data analysis was carried out using the BIA Evaluation Software Kit obtained from GE Healthcare Bio-Sciences Corporation. The assay data fitted 1-to-1 Langmuir using global curve fitting analysis.

[3] = target: T2, EGF; experiment: Dot blotting analysis of biotinylated peptide with membrane-spotted EGF; assay type: binding; parameters: Recombinant Human Epidermal Growth Factor (EGF); purchased Abcam plc, Cambridge, Mass; settings: EGF 10 nM spotted; biotinylated peptide 10 ng/mL; Streptavidin-HRP, TMB
Description: EGF (1 microliter of a 10 nM solution in PBS was spotted a nitrocellulose membrane (obtained from Thermo Fisher Scientific) and the membrane was dried in air for about 30 minutes. The membrane was then incubated in 15 mL of blocking buffer (3 wt. % BSA in PBS) for one hour at room temperature. The membrane was washed three times (15 minutes for each wash) with 15 mL portions of fresh PBST. The washed membrane was incubated with Biotinylated SEQ ID NO: 1 [10 mL of a 10 ng/mL solution in blocking buffer (3 wt. % BSA in PBS)] with gentle agitation for one hour. The membrane was again washed three times (15 minutes for each wash) with 15 mL portions of fresh PBST. The washed membrane was incubated with Streptavidin-HRP [1:5000 dilution in 10 mL of the blocking buffer (3 wt. % BSA in PBS)] for 30 minutes with gentle agitation. Following the incubation, the membrane was washed three times (15 minutes for each wash) with 15 mL portions of fresh PBST. The washed membrane was incubated with 10 mL of the development solution for horseradish peroxidase (TMB-Blotting Substrate Solution, Pierce-Fisher Scientific) with gentle agitation. The color development was stopped by adding water.

T2 sequence (P01133 971-1023 limits assumed): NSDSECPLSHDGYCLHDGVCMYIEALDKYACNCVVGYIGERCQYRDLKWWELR
T1 sequence (P01375 77-233 limits assumed): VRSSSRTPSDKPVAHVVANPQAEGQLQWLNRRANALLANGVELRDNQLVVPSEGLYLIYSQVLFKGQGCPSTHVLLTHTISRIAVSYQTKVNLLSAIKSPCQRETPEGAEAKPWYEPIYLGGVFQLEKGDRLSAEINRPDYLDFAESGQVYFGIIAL

Row | Substance | Kd [1] [µM] | Kd [2] [µM] | dot blot colour development at EGF application site (affinity for EGF) [3]
1 | Ac-WFEWPYWEMNVPDVWN-NH2 [SEQ ID NO: 1, WFEWPYWEMNVPDVWN] | 75 | 0.08 | 
2 | Biotinylated SEQ ID NO: 1: Biotinylated version of peptide SEQ ID NO: 1 (WFEWPYWEMNVPDVWN; also: biotinylated, site not given here) |  |  | A dark spot developed
